Read-outs that look alike come from different tables or passages of the source.
Tests used:
[1] = target: NR1-1a/NR2B receptors (Homo sapiens, UniProt Q05586+Q13224); experiment: Two electrode voltage clamp of Xenopus oocytes expressing NR1-1a and NR2B NMDA receptor subunits; inhibition of glutamate/glycine current at pH 6.9 and 7.6; type: cell-based; conditions: for Fold increase in potency between pH 7.6 and 6.9: IC50 at pH 7.6/IC50 at pH 6.9
Method: Current recordings were obtained using two electrode voltage clamp of Xenopus oocytes injected with cRNA encoding the NR1-1a and NR2B NMDA receptor subunits. Cells were injected with 5-15 ng of cRNA encoding NR1-1a in combination with a 2-3 fold greater amount of either NR2B cRNA. Injected oocytes were maintained at 17° C. in Barths solution containing penicillin (10 U/ml) and streptomycin (10 μg/ml) for 2-6 days, after which recordings were made at room temperature from oocytes continuously perfused in a standard frog Ringers solution. This solution was composed of (in mM): 90 NaCl, 1.0 KCl, 10 Hepes and 0.5 BaCl2. Recording pipettes were filled with 0.3M KCl. Saturating concentrations of glutamate (20-50 μM) and glycine (20 μM) were used to activate the receptor. Drugs were prepared daily from frozen stock solutions in DMSO. Glutamate/glycine-activated currents were typically elicited from a holding potential of −20 to −40 mV. Current signals were digitized and analyzed using custom acquisition software. To study the effects of pH, oocytes were perfused with Ringer's solution at the desired pH until a stable baseline had been reached before subsequent agonist application.
Oocytes in which the glutamate/glycine current was not stable or in which the baseline holding current drifted were discarded. Inhibition of the glutamate/glycine current by drugs was examined by applying 1-4 different concentrations of the antagonist to each oocyte. […] On average recordings were made from 14 oocytes per condition.

[2] = system: Male Sprague-Dawley rats; experiment: Maximal electroshock seizures, duration of tonic hindlimb extension (THE); type: in vivo; conditions: for THE in drug (% control): rat, mean ± sem; for Anticonvulsive effects: rat maximal electroshock, summary in words
Excerpt: Methods: Male Sprague-Dawley rats weighing less than 150 gm were used for these experiments. Maximal electroshock seizures were produced by delivering 200 ms biphasic square-wave pulses of 200 mA at 60 Hz via corneal electrodes, using a Wahlquist Constant Current Source (Salt Lake City, Utah). A drop of 0.9% lidocaine in saline was applied to each cornea 30 s before stimulus delivery to minimize pain. Automatic timers recorded the durations of tonic hindlimb flexion, tonic hindlimb extension (THE), clonus and flaccidity that sequentially followed stimulus delivery. The duration of THE was used as an index of seizure severity. Animals were stimulated on three consecutive days, referred to as “control”, “test”, and “recovery”. […] On “test” day, each animal received either vehicle or drug at varying intervals prior to stimulation. Reversibility of drug effect on THE was ascertained by response to stimulation administered one day after the “test” session. The values shown in the table are the mean (±sem) THE duration in the test condition, as a percentage of the mean of control and recovery conditions. Four rats were used for each time point.
P<0.001 for difference from vehicle by one-way ANOVA with Dunnett's post hoc test. For all other conditions P>0.05.

[3] = Table B, pH 6.9, NR1-1a/NR2B in Xenopus oocytes, read-out: IC50 at pH 6.9
[4] = 30 mg/kg, 15 min from drug injection to electroshock
[5] = 30 mg/kg, 60 min from drug injection to electroshock
[6] = Table A, pH 6.9, NR1-1a/NR2B in Xenopus oocytes, read-out: IC50 at pH 6.9
[7] = Table D, pH 6.9, NR1-1a/NR2B in Xenopus oocytes, read-out: IC50 at pH 6.9

Sequence of NR1-1a/NR2B receptors (Q13224 27-1484, other chains not shown): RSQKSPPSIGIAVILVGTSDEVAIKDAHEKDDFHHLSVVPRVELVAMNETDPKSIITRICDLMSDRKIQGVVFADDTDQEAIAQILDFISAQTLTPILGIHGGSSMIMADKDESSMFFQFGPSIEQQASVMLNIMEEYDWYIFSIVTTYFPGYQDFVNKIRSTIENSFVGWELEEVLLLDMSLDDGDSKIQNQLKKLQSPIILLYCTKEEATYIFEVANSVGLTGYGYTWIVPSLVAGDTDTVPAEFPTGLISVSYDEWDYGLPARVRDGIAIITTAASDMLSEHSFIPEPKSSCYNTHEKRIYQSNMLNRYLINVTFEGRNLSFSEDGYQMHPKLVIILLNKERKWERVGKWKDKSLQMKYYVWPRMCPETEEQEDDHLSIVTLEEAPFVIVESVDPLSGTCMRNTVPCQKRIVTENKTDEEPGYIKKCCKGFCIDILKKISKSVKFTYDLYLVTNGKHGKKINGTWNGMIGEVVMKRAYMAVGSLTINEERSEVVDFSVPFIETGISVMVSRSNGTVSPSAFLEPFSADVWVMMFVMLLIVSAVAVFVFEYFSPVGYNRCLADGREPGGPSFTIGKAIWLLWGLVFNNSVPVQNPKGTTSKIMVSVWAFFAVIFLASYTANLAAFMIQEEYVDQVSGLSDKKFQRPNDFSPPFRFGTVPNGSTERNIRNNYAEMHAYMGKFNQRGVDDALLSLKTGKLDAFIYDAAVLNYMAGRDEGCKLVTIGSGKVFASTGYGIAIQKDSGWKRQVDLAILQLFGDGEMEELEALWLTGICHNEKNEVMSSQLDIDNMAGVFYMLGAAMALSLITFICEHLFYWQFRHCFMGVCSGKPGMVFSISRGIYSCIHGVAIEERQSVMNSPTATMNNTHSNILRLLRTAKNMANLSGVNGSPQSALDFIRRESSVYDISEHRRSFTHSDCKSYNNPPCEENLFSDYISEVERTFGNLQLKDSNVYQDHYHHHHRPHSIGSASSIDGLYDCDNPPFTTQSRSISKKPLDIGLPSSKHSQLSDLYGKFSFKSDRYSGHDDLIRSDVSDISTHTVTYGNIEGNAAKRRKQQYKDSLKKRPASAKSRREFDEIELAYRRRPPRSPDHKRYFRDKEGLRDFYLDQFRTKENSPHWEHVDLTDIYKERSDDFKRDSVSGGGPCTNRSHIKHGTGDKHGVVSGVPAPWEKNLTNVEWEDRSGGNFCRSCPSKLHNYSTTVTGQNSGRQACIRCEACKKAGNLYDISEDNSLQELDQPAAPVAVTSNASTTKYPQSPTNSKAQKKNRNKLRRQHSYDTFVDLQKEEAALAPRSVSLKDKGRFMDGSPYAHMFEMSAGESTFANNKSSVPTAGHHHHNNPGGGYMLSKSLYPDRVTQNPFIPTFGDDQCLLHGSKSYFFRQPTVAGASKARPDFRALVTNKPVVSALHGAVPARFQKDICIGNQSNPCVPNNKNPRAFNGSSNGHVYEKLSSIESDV

Compound | Fold increase in potency between pH 7.6 and 6.9 ([1]; Table B) | IC50 [1, 3] [nM] | Fold increase in potency between pH 7.6 and 6.9 ([1]; Table C) | Fold increase in potency between pH 7.6 and 6.9 ([1]; Table A) | Fold increase in potency between pH 7.6 and 6.9 ([1]; Table D) | IC50 [1, 6] [nM] | further results
CS(=O)(=O)Nc1ccc(OC[C@@H](O)CN(CCc2ccc(Cl)c(Cl)c2)Cc2ccccc2F)cc1 [93-35 (S), (S)-1-(4-Methanesulphonamidephenoxy)-3-(N-(2-fluorobenzyl)-3,4-dichlorophenylethylamino)-2-propanol] | 3.60 | 48 | – | – | – | – | –
CS(=O)(=O)Nc1ccc(OCC2CN(CCc3ccc(Cl)c(Cl)c3)C(=O)O2)cc1 [93-27 (S), N-(3,4-dichlorophenyl)ethyl-5-(4-methanesulphonamidophenoxy) methyl-oxazolidine-2-one] | 0.95 | 338 | 0.954 | – | – | – | THE in drug (% control) [2, 4]: 97.0 ± 0.6 % control; THE in drug (% control) ([2]; 30 mg/kg, 30 min from drug injection to electroshock): 95.6 ± 1.3 % control; THE in drug (% control) [2, 5]: 89.7 ± 0.8 % control
O=S(=O)(Nc1ccc(OCC(O)CNCCc2ccc(Cl)c(Cl)c2)cc1)c1ccccc1 [93-29 (S), 1-(4-benzenesulphonamidophenoxy)-3-(3,4-dichloro-phenylethyl-amino)-2-propanol] | – | – | – | 18.0 | 18.02 | – | IC50 [1]: 1160 nM
CCCN(CCc1ccc(Cl)c(Cl)c1)C[C@H](O)COc1ccc(NS(C)(=O)=O)cc1 [93-6 (S), (S)-1-(4-Methanesulphonamidephenoxy)3-(N-propyl-3,4-dichloro-phenylethylamino)-2-propanol] | – | – | 6.54 | 6.54 | – | 111 | –
CN(CCc1ccc(Cl)c(Cl)c1)CC(O)COc1ccc(NS(C)(=O)=O)cc1.Cl (racemic) [Compound 93, (R,S) 1-(4-methanesulfonamidophenoxy)-3-(N-methyl-3,4-dichlorophenylethylamine)-2-propanol hydrochloride, reference compound] | – | – | – | – | – | – | Anticonvulsive effects [2]: Anticonvulsive effects; THE in drug (% control) ([2]; 10 mg/kg, 15 min from drug injection to electroshock): 78.2 ± 4.5 % control; THE in drug (% control) ([2]; 10 mg/kg, 30 min from drug injection to electroshock): 58.5 ± 11.3 % control; THE in drug (% control) ([2]; 10 mg/kg, 60 min from drug injection to electroshock): 62.4 ± 3.9 % control; THE in drug (% control) ([2]; 30 mg/kg, 240 min from drug injection to electroshock): 96.2 ± 1.7 % control
CS(=O)(=O)Nc1ccc(OC[C@@H](O)CN(CCc2ccc(Cl)c(Cl)c2)Cc2cccc(F)c2)cc1 [93-34 (S), (S)-1-(4-Methanesulphonamidephenoxy)-3-(N-(3-fluorobenzyl)-3,4-dichlorophenylethylamino)-2-propanol] | 4.62 | 210 | – | – | – | – | –
CC(=O)OC(COc1ccc(NS(C)(=O)=O)cc1)CN(CCc1ccc(Cl)c(Cl)c1)C(C)=O [93-28 (S), 1-(4-Methanesulphonamidophenoxy)-3-(N-acetyl-3,4-dichloro-phenylethylamino)-2-propyl acetate] | – | – | – | 11.1 | – | 1640 | –
CN(CCc1ccc(Cl)c(Cl)c1)C[C@H](O)COc1ccc(NS(C)(=O)=O)cc1 [93-2 (S), (S)-1-(4-Methanesulphonamidephenoxy)3-(N-methyl-3,4-dichloro-phenylethylamino)-2-propanol] | – | – | 5.87 | 5.87 | – | 63 | –
CS(=O)(=O)Nc1ccccc1OC[C@@H](O)CNCCc1ccc(Cl)c(Cl)c1 [93-32 (S), 1-(2-Methanesulphonamidephenoxy)-3-(3,4-dichlorophenylethylamino)-2-propanol] | – | – | – | – | – | – | IC50 [1]: 17900 nM
CS(=O)(=O)Nc1ccc(OC[C@@H](O)CN(CCc2ccc(Cl)c(Cl)c2)Cc2ccc(F)cc2)cc1 [93-33 (S), (S)-1-(4-Methanesulphonamidephenoxy)-3-(N-(4-fluorobenzyl)-3,4-dichlorophenylethylamino)-2-propanol] | 0.810 | 520 | – | – | – | – | –
CCCCN(CCc1ccc(Cl)c(Cl)c1)C[C@H](O)COc1ccc(NS(C)(=O)=O)cc1 [93-31 (S), (S)-1-(4-Methanesulphonamidephenoxy)-3-(N-butyl-3,4-dichloro-phenylethylamino)-2-propanol] | – | – | 51.2 | 51.2 | – | 58 | –
CN(c1ccc(OC[C@@H](O)CNCCc2ccc(Cl)c(Cl)c2)cc1)S(C)(=O)=O [93-7 (S), (S)-1-(4-N-methyl-methanesulphonamidephenoxy)-3-(3,4-dichloro-phenylethylamino)-2-propanol] | – | – | – | – | 5.51 | – | IC50 [1]: 2330 nM
NC(=O)N1c2ccccc2C=Cc2ccccc21 [Carbamazepine, reference compound] | – | – | – | – | – | – | THE in drug (% control) ([2]; 40 mg/kg, 30 min from drug injection to electroshock): 0.0 ± 0.0 % control
CS(=O)(=O)Nc1ccc(OC[C@@H](O)CNCCc2ccc(Cl)c(Cl)c2)cc1.Cl [93-4 (S), (S)-1-(4-methanesulfonamideophenoxy)-3-(3,4-dichlorophenylethylamine)-2-propanol hydrochloride] | 3.54 | 26 | 3.54 | – | 3.54 | – | Anticonvulsive effects [2]: Anticonvulsive effects; THE in drug (% control) ([2]; 3 mg/kg, 15 min from drug injection to electroshock): 91.1 ± 2.7 % control; THE in drug (% control) ([2]; 3 mg/kg, 60 min from drug injection to electroshock): 109 ± 11.5 % control; THE in drug (% control) [2, 4]: 66.6 ± 12.5 % control; THE in drug (% control) [2, 5]: 30.8 ± 12.1 % control; IC50 [1, 7]: 26 nM
CS(=O)(=O)Nc1cccc(OC[C@@H](O)CNCCc2ccc(Cl)c(Cl)c2)c1 [93-9 (S), (S)-1-(3-Methanesulphonamidephenoxy)3-(3,4-dichlorophenylcthyl-amino)-2-propanol] | – | – | – | – | 8.19 | – | IC50 [1]: 208 nM
C[C@@H](CN1CCC(Cc2ccccc2)CC1)[C@@H](O)c1ccc(O)cc1 [Ro256981, reference compound] | 0.444 | 18 | – | – | – | – | –
CCN(CCc1ccc(Cl)c(Cl)c1)C[C@H](O)COc1ccc(NS(C)(=O)=O)cc1 [93-5 (S), (S)-1-(4-Methanesulphonamidephenoxy)-3-(N-ethyl-3,4-dichloro-phenylethylamino)-2-propanol] | – | – | 8.00 | 8.00 | – | 20 | –
CS(=O)(=O)Nc1ccc(OC[C@@H](O)CN(CCc2ccc(Cl)c(Cl)c2)Cc2ccccc2)cc1 [93-30 (S), (S)-1-(4-Methanesulphonamidephenoxy)-3-(N-benzyl-3,4-dichloro-phenylethylamino)-2-propanol] | – | – | 16.8 | 16.8 | – | 70 | –
OC(CNCCc1ccc(Cl)c(Cl)c1)COc1ccc(OC(F)(F)F)cc1 (racemic) [Compound 93-16] | – | – | – | – | 4.82 | – | IC50 [1, 7]: 11200 nM
O=[N+]([O-])c1ccc(OC[C@@H](O)CNCCc2ccc(Cl)c(Cl)c2)cc1 [93-10 (S), (S)-1-(4-Nitrophenoxy)3-(3,4-dichlorophenylethylamino)-2propanol] | – | – | – | – | 1.60 | – | IC50 [1]: 12100 nM
